Measurements as given in the supplement of paper PMC5908809.

Legend:
[1] = tested on: NKL (IL-2 2.5 ng/mL); experiment: relative IC50 (inflection point of fitted viability curve, relative to fitted max inhibition); higher = less sensitive; details: 72 h
Description: (§1)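 Drug sensitivity and resistance testing: 5 concentrations over a 10,000-fold range, 72 h at 37 °C, viability by CellTiter-Glo normalised to DMSO and benzethonium chloride controls. IC50 is the inflection point of a logistic fit (min fixed at 0, max fitted), so it is relative to the fitted maximal inhibition. Kept only where fitted max inhibition is at least 50%.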

[2] = tested on: SNK-6 (IL-2 2.5 ng/mL); experiment: as above; details: 72 h
Description: as §1

[3] = tested on: normal NK cells expanded with K562-aAPC; experiment: percent inhibition of viability; higher = more inhibition; details: 72 h, IL-2 2.5 ng/mL
Description: (§2)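 Drug sensitivity and resistance testing on K562-aAPC-expanded normal NK cells: 5 concentrations (10-fold steps over a 10,000-fold range), 72 h at 37 °C, viability by CellTiter-Glo normalised to DMSO and benzethonium chloride controls; DSS from the fitted curve.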

[4] = tested on: normal NK cells expanded with K562-aAPC; experiment: drug sensitivity score (DSS) (DSS units); higher = more sensitive; extreme values may be limits of the assay; details: 72 h; IL-2 2.5 ng/mL
Description: as §2

[5] = tested on: NK-YS (IL-2 2.5 ng/mL); experiment: percent inhibition of viability; higher = more inhibition; details: 72 h
[6] = tested on: KHYG-1 (IL-2 2.5 ng/mL); experiment: as above; details: 72 h
[7] = tested on: normal primary NK cells, pool 3 (3 donors) (IL-2 2.5 ng/mL); experiment: as above; details: 72 h
[8] = tested on: KAI3 (IL-2 2.5 ng/mL); experiment: as above; details: 72 h
[9] = tested on: NK-92 (IL-2 2.5 ng/mL); experiment: as above; details: 72 h
[10] = tested on: normal primary NK cells, pool 1 (3 donors), resting (IL-2 0 ng/mL); experiment: as above; details: 72 h
[11] = tested on: normal primary NK cells, pool 1 (3 donors) (IL-2 2.5 ng/mL); experiment: as above; details: 72 h
[12] = tested on: NKL (IL-2 2.5 ng/mL); experiment: as above; details: 72 h
[13] = tested on: YT (IL-2 2.5 ng/mL); experiment: as above; details: 72 h
[14] = tested on: normal primary NK cells, pool 2 (3 donors) (IL-2 2.5 ng/mL); experiment: as above; details: 72 h
[15] = tested on: IMC-1 (IL-2 20 ng/mL); experiment: as above; details: 72 h
[16] = tested on: DERL-7 (IL-2 2.5 ng/mL); experiment: as above; details: 72 h
[17] = tested on: SNK-6 (IL-2 2.5 ng/mL); experiment: as above; details: 72 h
[18] = tested on: NK-YS (IL-2 2.5 ng/mL); experiment: drug sensitivity score (DSS) (DSS units); higher = more sensitive; extreme values may be limits of the assay; details: 72 h
[19] = tested on: KHYG-1 (IL-2 2.5 ng/mL); experiment: as above; details: 72 h
[20] = tested on: normal primary NK cells, pool 3 (3 donors) (IL-2 2.5 ng/mL); experiment: as above; details: 72 h
[21] = tested on: KAI3 (IL-2 2.5 ng/mL); experiment: as above; details: 72 h
[22] = tested on: NK-92 (IL-2 2.5 ng/mL); experiment: as above; details: 72 h
[23] = tested on: normal primary NK cells, pool 1 (3 donors), resting (IL-2 0 ng/mL); experiment: as above; details: 72 h
[24] = tested on: normal primary NK cells, pool 1 (3 donors) (IL-2 2.5 ng/mL); experiment: as above; details: 72 h
[25] = tested on: NKL (IL-2 2.5 ng/mL); experiment: as above; details: 72 h
[26] = tested on: YT (IL-2 2.5 ng/mL); experiment: as above; details: 72 h
[27] = tested on: normal primary NK cells, pool 2 (3 donors) (IL-2 2.5 ng/mL); experiment: as above; details: 72 h
[28] = tested on: IMC-1 (IL-2 20 ng/mL); experiment: as above; details: 72 h
[29] = tested on: DERL-7 (IL-2 2.5 ng/mL); experiment: as above; details: 72 h
[30] = tested on: SNK-6 (IL-2 2.5 ng/mL); experiment: as above; details: 72 h

Cn1cnc2c(F)c(Nc3ccc(Br)cc3F)c(C(=O)NOCCO)cc21 [Binimetinib]
Details	relative IC50 [nM]
[1]	19.6
[2]	> 1000

CC1(C)CNc2cc(NC(=O)c3cccnc3NCc3ccncc3)ccc21 [Motesanib]
Details	relative IC50 [nM]
[2]	> 10000

Nc1nc(N)c2nc(-c3cccc(O)c3)c(-c3cccc(O)c3)nc2n1 [TG100-115]
Details	relative IC50 [nM]
[2]	132

CCCCC(=O)OCC(=O)[C@]1(O)Cc2c(O)c3c(c(O)c2[C@@H](O[C@H]2C[C@H](NC(=O)C(F)(F)F)[C@H](O)[C@H](C)O2)C1)C(=O)c1c(OC)cccc1C3=O [Valrubicin] (max concentration tested 5000 nM)
percent inhibition of viability [%]
Details	0.5 nM	5 nM	50 nM	500 nM	5000 nM
[3]	-4.09	-1.21	4.69	55.8	101
[5]	-5.71	4.57	40.3	86.6	101
[6]	-6.36	1.91	9.03	89.6	109
[7]	-11.9	-6.83	15.7	53.2	98.4
[8]	-21.3	-1.05	42.1	62.3	85.2
[9]	-14.1	-10.7	10	89.7	105
[10]	-3.66	-27.1	-0.41	88.2	92.3
[11]	2.9	-5.69	4.41	76	97.4
[12]	-11.4	33.3	101	105	109
[13]	-0.05	4.95	0.64	87.1	109
[14]	-13.8	-9.19	12.8	67.3	95.2
[15]	-8.69	1.1	16.2	99.5	101
[16]	1.97	-4.8	35.6	99.1	101
[17]	10.3	28.7	23	89.2	86

Details	drug sensitivity score
[4]	12.2
[18]	21
[19]	17.5
[20]	12.3
[21]	17.4
[22]	17.7
[23]	16.1
[24]	14.7
[25]	35.2
[26]	15.8
[27]	14.2
[28]	20.7
[29]	22.9
[30]	18.6

COc1cc2/c(=N/c3ccc(Br)cc3F)nc[nH]c2cc1OCC1CCN(C)CC1 [Vandetanib] (max concentration tested 1000 nM)
percent inhibition of viability [%]
Details	0.1 nM	1 nM	10 nM	100 nM	1000 nM
[3]	-8.6	1.05	-3.45	6.91	29.5
[5]	-3.92	-3.47	0.22	0.66	11.3
[6]	-1.45	0.56	5.16	2.56	12.2
[7]	-11.4	-7.39	-2.76	-1.3	-0.41
[8]	0.12	-3.68	-0.86	-6.05	18.6
[9]	-4.34	-9.89	-2.18	-8.76	7.58
[10]	7.75	-11.8	-1.4	-19.4	11.2
[11]	-5.01	-0.24	-7.43	-15.2	2.01
[12]	-13.3	-15.3	-10	2.48	9
[13]	2.5	1.99	6.02	-0.29	12.9
[14]	-2.11	0.59	-1.27	-7.23	12.3
[15]	-1	-1.11	2.06	4.13	13.1
[16]	-0.64	-4.35	-15.9	-3.72	3.05
[17]	12.7	14.6	14.3	33.2	24.4

Details	drug sensitivity score
[4]	2.32
[18]	0.03
[19]	0
[20]	0
[21]	0.3
[22]	0
[23]	0
[24]	0
[25]	0
[26]	0.08
[27]	0.01
[28]	0.22
[29]	0
[30]	7.25

C[C@]1(c2nc3c(C(N)=O)cccc3[nH]2)CCCN1 [Veliparib] (max concentration tested 10000 nM)
percent inhibition of viability [%]
Details	1 nM	10 nM	100 nM	1000 nM	10000 nM
[3]	3.32	0.6	3.03	3.27	19.4
[5]	-6.78	-8.37	-8.01	-6.17	14.8
[6]	-11.7	-8.12	-8.94	-3.41	12
[7]	-3.03	-1.96	-0.62	-3.1	15.2
[8]	1.98	-0.92	-2.55	12.1	34.3
[9]	7.45	4.92	2.84	-4.04	22.9
[10]	-8.38	-4.44	2.95	-4.91	56.4
[11]	-7.43	1.5	2.84	7.25	50.4
[12]	-2.87	-3.94	-5.59	4.18	38.6
[13]	1.3	-1.34	0.84	-0.22	3.43
[14]	-7.51	-2.4	-4.92	-8.11	16.4
[15]	1	0.9	0.37	0.91	1.79
[16]	1.66	5.22	0.09	-2.95	25.1
[17]	3.66	1.93	-13.1	-1.7	13.8

Details	drug sensitivity score
[4]	0.98
[18]	0.1
[19]	0.01
[20]	0.16
[21]	3.29
[22]	0.6
[23]	2.67
[24]	3.89
[25]	2.57
[26]	0
[27]	0.16
[28]	0
[29]	0.78
[30]	0.1

CCCS(=O)(=O)Nc1ccc(F)c(C(=O)c2c[nH]c3ncc(-c4ccc(Cl)cc4)cc23)c1F [Vemurafenib] (max concentration tested 10000 nM)
percent inhibition of viability [%]
Details	1 nM	10 nM	100 nM	1000 nM	10000 nM
[3]	-5.54	-6.29	-9.37	-4.54	5.8
[5]	-2.8	-10.1	-3.62	0.91	77.1
[6]	1.21	-7.43	3.43	42.5	105
[7]	0.76	-2.71	6.1	0.26	0.17
[8]	-2.25	-4.57	-1.04	12.3	75.2
[9]	-0.79	1.62	12	22.6	89.5
[10]	3.45	-3.02	6.61	23.4	23.8
[11]	-3.98	-7.14	1.09	0.31	-3.81
[12]	-13.6	-17.7	-12.3	12.2	73.1
[13]	1.23	-1.61	4.12	16.2	98.7
[14]	-1.54	-1.23	6.03	0.86	9.89
[15]	-6.37	-7.47	-1.05	-3.36	37.8
[16]	3.23	0.38	4.34	15.4	79.5
[17]	-12.9	-2.01	-17	-0.04	92.6

Details	drug sensitivity score
[4]	0
[18]	4.38
[19]	11.1
[20]	0
[21]	6.2
[22]	8.16
[23]	4.54
[24]	0
[25]	6.06
[26]	8.15
[27]	0
[28]	1.59
[29]	6.92
[30]	5.17
